Patent US20230165853A1, “METHOD FOR TREATING CHRONIC KIDNEY DISEASES” (ENYO PHARMA, priority 2021, published 2023)
Values joined by “and” are separate entries in the source; they are usually repeats but may differ in a detail not shown here. Identical values can stand only once. “Also recorded” adds a separate entry of the source. Marks after values point to notes of the source that are not given here.

Tests used:
Nx mice [1] = experiment: Subtotal nephrectomy (Nx) mouse model of CKD, curative study, interstitial fibrosis by PSR (Example 2); assay type: in vivo; settings: initiated 5 weeks after Nx
Description: Analysis has been focused on an experimental model of CKD, i.e. the subtotal nephrectomy (Nx). In this model, a “curative study” was investigated, i.e. treatments have been initiated 5 weeks after Nx, when lesions are already developed.
54 nine-week old FVB female mice have been investigated, of which 6 have been submitted to sham operation (controls) and 48 to subtotal nephrectomy (Nx), which consist in the excision of the right kidney and the two poles of the left kidney to reach 75% reduction of total renal mass. Surgery was performed under xylazine (Rompun 2%; Bayer, Leverkusen, France) (6 μg/g of body weight) and ketamine (Clorketam 1000; Vetoquinol SA, Lirre, France) (120 μg/g of body weight) anesthesia. […]
Kidneys were fixed in 4% paraformaldehyde, paraffin embedded, and 4-μm sections were stained with picrosirius red (PSR). […] All sections were evaluated by a pathologist who was blinded to the treatment groups.
(§1) Staining of all kidney samples with picrosirius red (PSR) was performed, and red intensity above a defined threshold was defined as fibrosis. For interstitial fibrosis, at least 10 to 15 random selected fields (magnification ×200) across the corticomedullary junction were analyzed per each kidney section, and the results were expressed as percentages of the total area of the selected fields.

NASH patients = experiment: Randomized, double-blind, placebo-controlled Livify NASH trial (Phase 2a); assay type: in vivo, human; settings: for ALT, absolute change (IU/L) / Alpha-2-Macroglobulin, absolute change (mg/dL) / Body Weight, absolute change (kg) / Change Relative LFC, % / GGT, absolute change (IU/L) / Waist-to-Hip Ratio, absolute change / cT1, absolute change (msec) / eGFR, absolute change (mL/min/1.73 m^2) / Change Absolute LFC, %: change from baseline to W12, mean (SD); for Change Absolute LFC, %: MRI-PDFF
Method: Vonafexor has anti-fibrotic effects in NASH and Chronic Kidney Disease (CKD) models. Up to 64% of NASH patients have decreased estimated glomerular filtration rate (eGFR <90 mL/min/1.73 m^2) which can evolve into CKD. […] 96 patients were randomized 1:1:1 to daily oral Placebo (PBO, n=32) or VONA (Vonafexor) 100 mg (n=31) or 200 mg (n=33) for 12 weeks (W12). Inclusion criteria required phenotypic stage 2 or 3 fibrosis NASH with an absolute liver fat content (LFC by MRI-PDFF) ≥10% and liver stiffness by transient elastography [LSTE]≥8.5 kPa or previous biopsy-proven NASH. Randomization was stratified by diabetes and LFC.

Nx mice [2] = experiment: Subtotal nephrectomy (Nx) mouse model of CKD, curative study, renal histopathology (Example 1); assay type: in vivo
Description: (§2) Analysis has been focused on an experimental model of CKD, i.e. the subtotal nephrectomy (Nx). In this model, a “curative study” was investigated, i.e. treatments have been initiated 5 weeks after Nx, when lesions are already developed. 42 nine-week old FVB female mice have been investigated, of which 6 have been submitted to sham operation (controls) and 36 to subtotal nephrectomy (Nx), which consist in the excision of the right kidney and the two poles of the left kidney to reach 75% reduction of total renal mass. Surgery was performed under xylazine (Rompun 2%; Bayer, Leverkusen, France) (6 μg/g of body weight) and ketamine (Clorketam 1000; Vetoquinol SA, Lirre, France) (120 μg/g of body weight) anesthesia.
(§3) After 5 weeks, mice have been divided into 4 groups: • Sham mice treated with the vehicle (n=6) • Nx mice treated with the vehicle (n=10) • Nx mice treated with dEF2572 FXR agonist (4-bromo-5-[4-(2,6-dichloro-benzenesulfonyl)-piperazin-1-yl]-benzofuran-2-carboxylic acid) at 100 mg/Kg/day (n=11) • Nx mice treated with Nidufexor (LMB763) FXR agonist at 30 mg/Kg/day (n=10)
Compounds have been administered once a day (QD) per oral gavage.
Mice have been sacrificed 3 weeks later. Blood has been collected just before sacrifice. At sacrifice, kidneys have been harvested for morphological and mRNA analyses.
Kidneys were fixed in 4% paraformaldehyde, paraffin embedded, and 4-μm sections were stained with Periodic acid-Schiff (PAS), Masson's trichrome, Hematoxylin and eosin, and picrosirius red (PSR). Images were acquired using a Nikon Digital Camera Dx/m/1200. All sections were evaluated by a pathologist who was blinded to the treatment groups.
The degree of glomerular lesions was evaluated on Periodic acid-Schiff (PAS) staining using a semi-quantitative score methodology. Briefly, 40-60 glomeruli per mouse were scored at a magnification of ×400, using the following scoring system: 0=no lesion, 1=mild sclerosis, interesting 10-25% of the glomerulus, 2=moderate sclerosis, interesting 25%-50% of the glomerulus, 3=severe sclerosis interesting 50%-75% of the glomerulus, and 4=global sclerosis interesting >75% of the glomerulus. The results were expressed as the mean of the scores of 40-60 glomeruli per mouse.
as §1, with “The degree of tubular dilations was automatically quantified on PAS staining using Image J/Fiji software, version 2.1.0. The extent of interstitial fibrosis was also quantified using Image J/Fiji software. Staining” for “Staining”, “performed simultaneously,” for “performed,”, “For tubular dilations and” for “For”

[3] = system: FXR target genes (OSTA and OSTB); experiment: Renal OSTA and OSTB mRNA levels by quantitative RT-PCR in Nx mice (Example 1); assay type: in vivo, mouse; settings: Nx mice kidneys
Method: Mice were subjected to a subtotal nephrectomy (Nx). Treatments were initiated 5 weeks after Nx for a duration of 3 weeks. Kidneys were collected at sacrifice, and OSTA and OSTB mRNA levels were assessed by quantitative RT-PCR. p-values are indicated on the graphs.
as §2
as §3, with “mg/Kg/day (n=10) […]” for “mg/Kg/day (n=10)”

[4] = 30 mg/Kg/day QD oral gavage for 3 weeks, 30 mg/kg/day
[5] = 100 mg/Kg/day QD oral gavage for 3 weeks, 100 mg/kg/day
[6] = 100 mg/Kg/day QD oral gavage for 3 weeks, initiated 5 weeks after Nx

SMILES: CC[C@H]1[C@@H](O)[C@@H]2[C@H](CC[C@]3(C)[C@@H]([C@H](C)CCC(=O)O)CC[C@@H]23)[C@@]2(C)CC[C@@H](O)C[C@@H]12 [Obeticholic acid, reference compound]
- renal interstitial fibrosis (picrosirius red staining positive areas) (Nx mice [1]; [4]): no significant effect

SMILES: O=C(O)c1cc2c(Cl)c(N3CCN(S(=O)(=O)c4c(Cl)cccc4Cl)CC3)ccc2o1 [Vonafexor, 4-chloro-5-[4-(2,6-dichloro-benzenesulfonyl)-piperazin-1-yl]-benzofuran-2-carboxylic acid]
- patients discontinued participation due to pruritus (NASH patients; 100 mg): 9%
- liver fibro-inflammation marker cT1 (Liver Multiscan) reduced by (NASH patients; 100 mg arm, p<0.001 vs PBO): 81 ms
- % Patients >88 msec absolute reduction (cT1) (NASH patients; 100 mg daily oral, W12): 36% *
- % Patients with >30% absolute reduction (LFC) (NASH patients; 100 mg daily oral, W12): 50% §
- % Patients with >−17 IU/L reduction (ALT) (NASH patients; 100 mg daily oral, W12): 52% §
- % Patients with any eGFR increase (NASH patients; 100 mg daily oral, W12): 76% §
- ALT, absolute change (IU/L) (NASH patients; 100 mg daily oral): −19.3 (3.2) § IU/L
- Alpha-2-Macroglobulin, absolute change (mg/dL) (NASH patients; 100 mg daily oral): −25.9 (4.3) #, § mg/dL
- Body Weight, absolute change (kg) (NASH patients; 100 mg daily oral): −1.7 (0.5) #,§ kg
- Change Relative LFC, % (NASH patients; 100 mg daily oral): −30.0 (4.7) #, § %
- GGT, absolute change (IU/L) (NASH patients; 100 mg daily oral): −40.6 (3.3) #, § IU/L
- Waist-to-Hip Ratio, absolute change (NASH patients; 100 mg daily oral): −0.02 (0.0) #, §
- cT1, absolute change (msec) (NASH patients; 100 mg daily oral): −80.6 (15.4) #, § msec
- eGFR, absolute change (mL/min/1.73 m^2) (NASH patients; 100 mg daily oral): +6.0 (9.5) #, § mL/min/1.73 m^2
- Change Absolute LFC, % (NASH patients; 100 mg daily oral): −6.3% and −6.3 (0.9) #, § %
- non-drug related severe adverse events (number) (NASH patients; 100 mg group): 2
- mean improvement in eGFR (NASH patients; 100 mg or 200 mg treated subjects, 12 weeks): +5.6 mL/min/1.73 m^2
- patients with an eGFR increase >0.1 mL/min/1.73 m (NASH patients; 100 mg treated subjects, 12-week treatment period): 76%
- % Patients >88 msec absolute reduction (cT1) (NASH patients; 200 mg daily oral, W12): 36% *
- % Patients with >5% absolute LFC reduction (NASH patients; 200 mg daily oral, W12): 43% §
- % Patients with >30% absolute reduction (LFC) (NASH patients; 200 mg daily oral, W12): 39% §
- % Patients with >−17 IU/L reduction (ALT) (NASH patients; 200 mg daily oral, W12): 36%
- % Patients with any eGFR increase (NASH patients; 200 mg daily oral, W12): 65% §
- ALT, absolute change (IU/L) (NASH patients; 200 mg daily oral): −10.8 (3.3) IU/L
- Alpha-2-Macroglobulin, absolute change (mg/dL) (NASH patients; 200 mg daily oral): −18.4 (4.5) #, § mg/dL
- Body Weight, absolute change (kg) (NASH patients; 200 mg daily oral): −2.5 (0.5) #, § kg
- Change Relative LFC, % (NASH patients; 200 mg daily oral): −25.5 (4.6) #, § %
- GGT, absolute change (IU/L) (NASH patients; 200 mg daily oral): −34.1 (3.3) #, § IU/L
- Waist-to-Hip Ratio, absolute change (NASH patients; 200 mg daily oral): −0.01 (0.0)
- cT1, absolute change (msec) (NASH patients; 200 mg daily oral): −71.9 (14.2) #, § msec
- eGFR, absolute change (mL/min/1.73 m^2) (NASH patients; 200 mg daily oral): +2.5 (14.5) #, § mL/min/1.73 m^2
- Change Absolute LFC, % (NASH patients; 200 mg daily oral): −5.5% and −5.5 (0.9) #, § %
- non-drug related severe adverse events (number) (NASH patients; 200 mg group): 2
- overall safety and tolerability (NASH patients; NASH patients, 100 mg or 200 mg daily for 12 weeks): safe and well tolerated
- ALT increases Grade 2 (NASH patients; NASH patients, 12 weeks): No ALT increases Grade 2
- increase in low density lipoprotein-cholesterol (LDL-C) (NASH patients; NASH patients, 12 weeks): 34%
- alpha-2-Macroglobulin (A2M) plasma levels (NASH patients; NASH patients, reduction correlated with eGFR improvement (p<0.05)): reduced
- mean reduction in ALT (NASH patients; VONA treatment (dose not stated), 12 weeks): 26%
- patients achieving relative LFC reduction of >30% (NASH patients; VONA-treated (dose not stated), W12): 50%
- mean reduction in GGT (NASH patients; VONA-treated subjects (dose not stated), p<0.001): 42%
- renal interstitial fibrosis (picrosirius red staining positive areas) (Nx mice [1]; [5]): significantly decreases; also recorded: significantly better than OCA; also recorded: higher beneficial effects than Losartan

SMILES: Cn1nc(C(=O)N(Cc2ccccc2)Cc2ccc(C(=O)O)cc2)c2c1-c1cc(Cl)ccc1OC2 [Nidufexor]
- interstitial fibrosis (Nx mice [2]; 30 mg/Kg/day QD oral gavage for 3 weeks (FIG. 1)): no significant effect
- beneficial effects on the kidneys (interstitial fibrosis, tubular dilatation, glomerular lesions) (Nx mice [2]; 30 mg/Kg/day QD oral gavage for 3 weeks, initiated 5 weeks after Nx): not observed
- renal expression of FXR target genes OSTA and OSTB (mRNA) [3, 4]: strong renal FXR target engagement; also recorded: more powerful FXR agonist than the identified compounds; also recorded: significantly increase

SMILES: O=C(O)c1cc2c(Br)c(N3CCN(S(=O)(=O)c4c(Cl)cccc4Cl)CC3)ccc2o1 [dEF2572, 4-bromo-5-[4-(2,6-dichloro-benzenesulfonyl)-piperazin-1-yl]-benzofuran-2-carboxylic acid]
- renal glomerular lesions (semi-quantitative score) (Nx mice [2]; [6]): significantly decreases
- renal interstitial fibrosis (picrosirius red staining positive areas) (Nx mice [2]; [6]): significantly decreases
- renal tubular dilatation (PAS staining) (Nx mice [2]; [6]): significantly decreases
- renal expression of FXR target genes OSTA and OSTB (mRNA) [3, 5]: strong renal FXR target engagement; also recorded: significantly increase
